Measured values as given in article PMC5218480 (PLoS ONE, 2017).

Tested on: MV-4-11 cells
Experiment: Gene expression microarray analysis (Affymetrix PrimeView) and GSEA
Format: cell-based, human
Parameters: RFU PODN (11730768_x_at) / Fold change /veh PODN (11730768_x_at) / RFU LINC00158 (11744669_a_at) / Fold change /veh LINC00158 (11744669_a_at) / RFU DUSP10 (11751237_a_at) / Fold change /veh DUSP10 (11751237_a_at) / RFU ID3 (11757404_x_at) / Fold change /veh ID3 (11757404_x_at) / RFU PLEKHG5 (11737974_s_at) / Fold change /veh PLEKHG5 (11737974_s_at) / RFU LRRC4B (11730491_at) / Fold change /veh LRRC4B (11730491_at) / RFU GIMAP4 (11747438_a_at) / Fold change /veh GIMAP4 (11747438_a_at) / RFU KRT8 (11758183_x_at) / Fold change /veh KRT8 (11758183_x_at) / RFU CNN1 (11734310_a_at) / Fold change /veh CNN1 (11734310_a_at) / RFU VPS37D (11726825_at) / Fold change /veh VPS37D (11726825_at) / RFU C10orf10 (11716522_x_at) / Fold change /veh C10orf10 (11716522_x_at) / RFU KIR2DL2 /// KIR2DL4 /// KIR2DL5A /// KIR2DL5B /// KIR2DS1 /// KIR2DS2 /// KIR2DS3 /// KIR2DS4 /// KIR3DL3 /// KIR3DL3 /// KIR3DS1 (11738374_at) / Fold change /veh KIR2DL2 /// KIR2DL4 /// KIR2DL5A /// KIR2DL5B /// KIR2DS1 /// KIR2DS2 /// KIR2DS3 /// KIR2DS4 /// KIR3DL3 /// KIR3DL3 /// KIR3DS1 (11738374_at) / RFU C1QL1 (11718748_at) / Fold change /veh C1QL1 (11718748_at) / RFU TMPRSS4 (11747572_a_at) / Fold change /veh TMPRSS4 (11747572_a_at) / RFU HAMP (11756126_x_at) / Fold change /veh HAMP (11756126_x_at) / RFU RNFT2 (11725882_a_at) / Fold change /veh RNFT2 (11725882_a_at) / RFU NR4A2 (11747474_a_at) / Fold change /veh NR4A2 (11747474_a_at) / RFU ABCC12 (11746883_a_at) / Fold change /veh ABCC12 (11746883_a_at) / RFU TMEM136 (11760407_x_at) / Fold change /veh TMEM136 (11760407_x_at) / RFU CLDN22 /// WWC2 (11732394_at) / Fold change /veh CLDN22 /// WWC2 (11732394_at) / RFU HLA-DPB1 (11760878_x_at) / Fold change /veh HLA-DPB1 (11760878_x_at) / RFU SPINT1 (11716480_a_at) / Fold change /veh SPINT1 (11716480_a_at) / RFU GAP43 (11754022_s_at) / Fold change /veh GAP43 (11754022_s_at) / RFU A4GNT (11735810_at) / Fold change /veh A4GNT (11735810_at) / RFU PRB3 (11715151_x_at) / Fold change /veh PRB3 (11715151_x_at) / RFU TUBB4B (11761932_at) / Fold change /veh TUBB4B (11761932_at) / RFU CAPN14 (11732068_a_at) / Fold change /veh CAPN14 (11732068_a_at) / RFU TMCC2 (11721928_a_at) / Fold change /veh TMCC2 (11721928_a_at) / RFU IRGQ (11745062_a_at) / Fold change /veh IRGQ (11745062_a_at) / RFU FAM174B (11720279_a_at) / Fold change /veh FAM174B (11720279_a_at) / RFU TMPRSS4 (11748680_a_at) / Fold change /veh TMPRSS4 (11748680_a_at) / RFU FAM212B (11763350_a_at) / Fold change /veh FAM212B (11763350_a_at) / RFU PLEKHG5 (11743358_a_at) / Fold change /veh PLEKHG5 (11743358_a_at) / RFU ZSCAN30 (11745921_a_at) / Fold change /veh ZSCAN30 (11745921_a_at) / RFU CMKLR1 (11741424_a_at) / Fold change /veh CMKLR1 (11741424_a_at) / RFU LOC101060620 /// MAPK8IP1 (11723275_at) / Fold change /veh LOC101060620 /// MAPK8IP1 (11723275_at) / RFU SPTSSB (11747773_x_at) / Fold change /veh SPTSSB (11747773_x_at) / RFU PRSS12 (11739890_at) / Fold change /veh PRSS12 (11739890_at) / RFU BIN1 (11741810_x_at) / Fold change /veh BIN1 (11741810_x_at) / RFU WNT11 (11732464_a_at) / Fold change /veh WNT11 (11732464_a_at) / RFU C10orf10 (11716521_a_at) / Fold change /veh C10orf10 (11716521_a_at) / RFU C5orf56 (11738089_at) / Fold change /veh C5orf56 (11738089_at) / RFU CYB561 (11721691_x_at) / Fold change /veh CYB561 (11721691_x_at) / RFU ANKRD19P (11752326_a_at) / Fold change /veh ANKRD19P (11752326_a_at) / RFU OR2T12 /// OR2T33 /// OR2T8 (11738714_s_at) / Fold change /veh OR2T12 /// OR2T33 /// OR2T8 (11738714_s_at) / RFU VCAN (11748164_a_at) / Fold change /veh VCAN (11748164_a_at) / RFU JSRP1 (11732532_at) / Fold change /veh JSRP1 (11732532_at) / RFU KRTAP10-11 (11738290_x_at) / Fold change /veh KRTAP10-11 (11738290_x_at) / RFU MYO3A (11730013_a_at) / Fold change /veh MYO3A (11730013_a_at) / RFU EBF3 (11725865_a_at) / Fold change /veh EBF3 (11725865_a_at) / RFU CAMK2N1 (11719241_x_at) / Fold change /veh CAMK2N1 (11719241_x_at) / RFU C5orf56 (11738088_a_at) / Fold change /veh C5orf56 (11738088_a_at) / RFU OLFML3 (11715873_a_at) / Fold change /veh OLFML3 (11715873_a_at) / RFU LOC100653217 /// NTM (11731650_a_at) / Fold change /veh LOC100653217 /// NTM (11731650_a_at) / RFU MAPK11 (11762145_a_at) / Fold change /veh MAPK11 (11762145_a_at) / RFU FIZ1 (11724087_x_at) / Fold change /veh FIZ1 (11724087_x_at) / RFU OASL (11726364_x_at) / Fold change /veh OASL (11726364_x_at) / RFU SOX15 (11748057_x_at) / Fold change /veh SOX15 (11748057_x_at) / RFU CD79A (11719716_a_at) / Fold change /veh CD79A (11719716_a_at) / RFU HIST1H1D (11736915_at) / Fold change /veh HIST1H1D (11736915_at) / RFU CASKIN2 (11723855_a_at) / Fold change /veh CASKIN2 (11723855_a_at) / RFU LOC730098 (11760151_x_at) / Fold change /veh LOC730098 (11760151_x_at) / RFU OR4N2 (11742367_at) / Fold change /veh OR4N2 (11742367_at) / RFU PRRT2 (11749266_a_at) / Fold change /veh PRRT2 (11749266_a_at) / RFU SNX32 (11753110_a_at) / Fold change /veh SNX32 (11753110_a_at) / RFU CDHR5 (11726645_a_at) / Fold change /veh CDHR5 (11726645_a_at) / RFU RCAN1 (11760418_a_at) / Fold change /veh RCAN1 (11760418_a_at) / RFU FAM167A (11723789_a_at) / Fold change /veh FAM167A (11723789_a_at) / RFU FAM26E (11764081_at) / Fold change /veh FAM26E (11764081_at) / RFU ISYNA1 (11749810_s_at) / Fold change /veh ISYNA1 (11749810_s_at) / RFU ACY1 (11761880_at) / Fold change /veh ACY1 (11761880_at) / RFU 11764098_at / Fold change /veh 11764098_at / RFU SAMD14 (11745864_x_at) / Fold change /veh SAMD14 (11745864_x_at) / RFU NPB (11741838_a_at) / Fold change /veh NPB (11741838_a_at) / RFU TMPRSS6 (11731388_a_at) / Fold change /veh TMPRSS6 (11731388_a_at) / RFU KRTAP10-2 (11738614_at) / Fold change /veh KRTAP10-2 (11738614_at) / RFU ARHGAP8 /// PRR5-ARHGAP8 (11727945_x_at) / Fold change /veh ARHGAP8 /// PRR5-ARHGAP8 (11727945_x_at) / RFU KRTAP5-7 /// NADSYN1 (11734609_at) / Fold change /veh KRTAP5-7 /// NADSYN1 (11734609_at) / RFU RASL12 (11751679_a_at) / Fold change /veh RASL12 (11751679_a_at) / RFU CDKN2B (11736163_a_at) / Fold change /veh CDKN2B (11736163_a_at) / RFU PRF1 (11729649_at) / Fold change /veh PRF1 (11729649_at) / RFU, ZNF638 /// ZNF638-IT1 / Fold change vs veh, ZNF638 /// ZNF638-IT1 / RFU, PANK3 / Fold change vs veh, PANK3 / RFU, SH3YL1 / Fold change vs veh, SH3YL1 / RFU, ZEB2 / Fold change vs veh, ZEB2 / RFU, NRIP1 / Fold change vs veh, NRIP1 / RFU, PTTG1IP / Fold change vs veh, PTTG1IP / RFU, CAPN2 / Fold change vs veh, CAPN2 / RFU, MED14 / Fold change vs veh, MED14 / RFU, SNORA58 / Fold change vs veh, SNORA58 / RFU, C1orf63 / Fold change vs veh, C1orf63 / RFU, LRRFIP1 / Fold change vs veh, LRRFIP1 / RFU, NDUFAF7 / Fold change vs veh, NDUFAF7 / RFU, SLC12A2 / Fold change vs veh, SLC12A2 / RFU, IBTK / Fold change vs veh, IBTK / RFU, ESF1 / Fold change vs veh, ESF1 / Fold change vs veh, TMEM50B / RFU, TAOK1 / Fold change vs veh, TAOK1 / RFU, ACBD3 / Fold change vs veh, ACBD3 / RFU, TMA16 / Fold change vs veh, TMA16 / RFU, RWDD3 / Fold change vs veh, RWDD3 / RFU, BCAT1 / Fold change vs veh, BCAT1 / RFU, EDEM3 / Fold change vs veh, EDEM3 / RFU, TMEM33 / Fold change vs veh, TMEM33 / RFU, WDR75 / Fold change vs veh, WDR75 / RFU, AHCTF1 / Fold change vs veh, AHCTF1 / RFU, TFRC / Fold change vs veh, TFRC / RFU, ZDHHC17 / Fold change vs veh, ZDHHC17 / RFU, NOM1 / Fold change vs veh, NOM1 / RFU, ARL8B / Fold change vs veh, ARL8B / RFU, ZBTB11 / Fold change vs veh, ZBTB11 / RFU, TAMM41 / Fold change vs veh, TAMM41 / RFU, KIAA1704 /// LOC100996395 / Fold change vs veh, KIAA1704 /// LOC100996395 / RFU, ING1 / Fold change vs veh, ING1 / RFU, TRMT61B / Fold change vs veh, TRMT61B / RFU, FUBP3 / Fold change vs veh, FUBP3 / RFU, TP53 / Fold change vs veh, TP53 / RFU, TNKS2 / Fold change vs veh, TNKS2 / RFU, ZFP14 / Fold change vs veh, ZFP14 / RFU, ACTR2 / Fold change vs veh, ACTR2 / RFU, PPP3R1 / Fold change vs veh, PPP3R1 / RFU, PIK3R1 / Fold change vs veh, PIK3R1 / RFU, HNRNPA1 / Fold change vs veh, HNRNPA1 / RFU, RNF170 / Fold change vs veh, RNF170 / RFU, ZNF28 / Fold change vs veh, ZNF28 / RFU, RNGTT / Fold change vs veh, RNGTT / RFU, OGT / Fold change vs veh, OGT / RFU, BRD1 / Fold change vs veh, BRD1 / RFU, MARS / Fold change vs veh, MARS / RFU, ZNF655 / Fold change vs veh, ZNF655 / RFU, FAHD1 / Fold change vs veh, FAHD1 / RFU, BDP1 / Fold change vs veh, BDP1 / RFU, LRRCC1 / Fold change vs veh, LRRCC1 / RFU, ARID1A / Fold change vs veh, ARID1A / RFU, ZNF146 / Fold change vs veh, ZNF146 / RFU, ZNF330 / Fold change vs veh, ZNF330 / RFU, GPN3 / Fold change vs veh, GPN3 / RFU, C9orf123 / Fold change vs veh, C9orf123 / RFU, N4BP2L2 / Fold change vs veh, N4BP2L2 / RFU, ARFIP1 / Fold change vs veh, ARFIP1 / RFU, FAM179B / Fold change vs veh, FAM179B / RFU, BCL10 / Fold change vs veh, BCL10 / RFU, UHRF1BP1L / Fold change vs veh, UHRF1BP1L / RFU, BET1 / Fold change vs veh, BET1 / RFU, CNOT2 / Fold change vs veh, CNOT2 / RFU, ZNF268 / Fold change vs veh, ZNF268 / Fold change vs veh, ZNF507 / RFU, DGCR2 / Fold change vs veh, DGCR2 / RFU, WDSUB1 / Fold change vs veh, WDSUB1 / Fold change vs veh, HSP90B1 /// MIR3652 / RFU, ADSS / Fold change vs veh, ADSS / RFU, GK / Fold change vs veh, GK / RFU, ZNF148 / Fold change vs veh, ZNF148 / RFU, TAF9 / Fold change vs veh, TAF9 / RFU, SLC1A5 / Fold change vs veh, SLC1A5 / RFU, SLMO2 / Fold change vs veh, SLMO2 / RFU, ABCC4 / Fold change vs veh, ABCC4 / RFU, LOC101060439 /// RAP1B / Fold change vs veh, LOC101060439 /// RAP1B / RFU, RFX7 / Fold change vs veh, RFX7 / RFU, GTPBP10 / Fold change vs veh, GTPBP10 / RFU, CNEP1R1 / Fold change vs veh, CNEP1R1 / RFU, BIVM-ERCC5 /// ERCC5 / Fold change vs veh, BIVM-ERCC5 /// ERCC5 / RFU, ILF3 / Fold change vs veh, ILF3 / RFU 11762660_at / Fold change /veh 11762660_at / RFU VCAN (11757783_s_at) / Fold change /veh VCAN (11757783_s_at) / RFU DDX43 (11728927_at) / Fold change /veh DDX43 (11728927_at) / RFU KRT8 (11758188_x_at) / Fold change /veh KRT8 (11758188_x_at) / RFU NKD1 (11759106_at) / Fold change /veh NKD1 (11759106_at) / RFU SRD5A1 (11742802_a_at) / Fold change /veh SRD5A1 (11742802_a_at) / RFU TPSAB1 /// TPSB2 (11721975_s_at) / Fold change /veh TPSAB1 /// TPSB2 (11721975_s_at) / RFU GSTM3 (11746129_a_at) / Fold change /veh GSTM3 (11746129_a_at) / RFU IL23R (11737362_x_at) / Fold change /veh IL23R (11737362_x_at) / RFU TMEM51 (11727254_a_at) / Fold change /veh TMEM51 (11727254_a_at) / RFU PIWIL2 (11732686_x_at) / Fold change /veh PIWIL2 (11732686_x_at) / RFU ORM1 (11744905_x_at) / Fold change /veh ORM1 (11744905_x_at) / RFU CCDC152 (11743942_at) / Fold change /veh CCDC152 (11743942_at) / RFU ECM1 (11717891_a_at) / Fold change /veh ECM1 (11717891_a_at) / RFU IL23R (11748794_a_at) / Fold change /veh IL23R (11748794_a_at) / RFU TNFAIP8L3 (11732012_x_at) / Fold change /veh TNFAIP8L3 (11732012_x_at) / RFU MBOAT4 (11741988_at) / Fold change /veh MBOAT4 (11741988_at) / RFU 11764193_at / Fold change /veh 11764193_at / RFU TMEM53 (11763286_at) / Fold change /veh TMEM53 (11763286_at) / RFU MAGEB2 (11727129_at) / Fold change /veh MAGEB2 (11727129_at) / RFU TMEM200A (11744735_a_at) / Fold change /veh TMEM200A (11744735_a_at) / RFU CCDC152 (11751479_a_at) / Fold change /veh CCDC152 (11751479_a_at) / RFU FAM211A (11726209_a_at) / Fold change /veh FAM211A (11726209_a_at) / RFU RGS16 (11746705_a_at) / Fold change /veh RGS16 (11746705_a_at) / RFU VCAN (11755009_s_at) / Fold change /veh VCAN (11755009_s_at) / RFU RHOB (11743442_s_at) / Fold change /veh RHOB (11743442_s_at) / RFU RGS16 (11720943_a_at) / Fold change /veh RGS16 (11720943_a_at) / RFU RGS16 (11720944_at) / Fold change /veh RGS16 (11720944_at) / RFU, VPS4B / Fold change vs veh, VPS4B / RFU, CREB1 / Fold change vs veh, CREB1 / RFU, DNAJC13 / Fold change vs veh, DNAJC13 / RFU, GNAQ / Fold change vs veh, GNAQ / RFU, CDK5R1 / Fold change vs veh, CDK5R1 / RFU, ZRANB3 / Fold change vs veh, ZRANB3 / RFU, CUL4A / Fold change vs veh, CUL4A / RFU, CCNY / Fold change vs veh, CCNY / RFU, UFL1 / Fold change vs veh, UFL1 / RFU, COG3 / Fold change vs veh, COG3 / RFU, DIAPH2 / Fold change vs veh, DIAPH2 / RFU, SKA2 / Fold change vs veh, SKA2 / RFU, AFF3 / Fold change vs veh, AFF3 / RFU, LMF1 / Fold change vs veh, LMF1 / RFU, IPO11 / Fold change vs veh, IPO11 / RFU, DFFB / Fold change vs veh, DFFB / RFU, FOXP1 / Fold change vs veh, FOXP1 / RFU, CARD8 / Fold change vs veh, CARD8 / RFU, STRN3 / Fold change vs veh, STRN3 / RFU, ADK / Fold change vs veh, ADK / RFU, RASSF2 / Fold change vs veh, RASSF2 / RFU, WIPF1 / Fold change vs veh, WIPF1 / RFU, LARP1B / Fold change vs veh, LARP1B / RFU, RASA1 / Fold change vs veh, RASA1 / RFU, RB1 / Fold change vs veh, RB1 / RFU, PPFIA1 / Fold change vs veh, PPFIA1 / RFU, MAT2A / Fold change vs veh, MAT2A / RFU, CCT5 / Fold change vs veh, CCT5 / RFU, WDR92 / Fold change vs veh, WDR92 / RFU, CUX1 / Fold change vs veh, CUX1 / RFU, TTC7A / Fold change vs veh, TTC7A / RFU, TMEM135 / Fold change vs veh, TMEM135 / RFU, DEPTOR / Fold change vs veh, DEPTOR / RFU, CPM / Fold change vs veh, CPM / RFU, DNAJB6 / Fold change vs veh, DNAJB6 / RFU, CACNA2D3 / Fold change vs veh, CACNA2D3 / RFU, DTX4 / Fold change vs veh, DTX4 / RFU, TFCP2 / Fold change vs veh, TFCP2 / RFU, GMCL1 /// GMCL1P1 / Fold change vs veh, GMCL1 /// GMCL1P1 / RFU, AEBP2 / Fold change vs veh, AEBP2 / RFU, SNHG1 /// SNORD22 /// SNORD25 /// SNORD26 /// SNORD27 /// SNORD28 /// SNORD29 /// SNORD31 / Fold change vs veh, SNHG1 /// SNORD22 /// SNORD25 /// SNORD26 /// SNORD27 /// SNORD28 /// SNORD29 /// SNORD31 / Fold change (Aza/veh), C12orf56 (ProbeSet 11735607_a_at) / Fold change (ACY-1035/veh), C12orf56 (ProbeSet 11735607_a_at) / Fold change (Aza/veh), FGFR1OP (ProbeSet 11751329_s_at) / Fold change (ACY-1035/veh), FGFR1OP (ProbeSet 11751329_s_at) / Fold change (Aza/veh), VPS36 (ProbeSet 11739960_a_at) / Fold change (ACY-1035/veh), VPS36 (ProbeSet 11739960_a_at) / RFU SYPL1 (11715823_x_at) / Fold change /veh SYPL1 (11715823_x_at) / RFU IGFBP7 (11715501_s_at) / Fold change /veh IGFBP7 (11715501_s_at) / RFU REEP3 (11722064_at) / Fold change /veh REEP3 (11722064_at) / RFU IGLL1 (11728026_x_at) / Fold change /veh IGLL1 (11728026_x_at): dose or concentration left out as unconfirmed
Conditions: ProbeSet 11730501_a_at; LIST D

Nc1ccc(-c2cccs2)cc1NC(=O)c1ccc2c(c1)cc(C1CC1)n2CCN1CCOCC1 [ACY-1035]
Fold change vs veh, CACNA2D3: 1.05
